Assay results published in patent US12195413B2, “Ethynyl derivatives” (Hoffmann-La Roche Inc., priority 2015, dated 2025).

Assay: rat Vogel conflict drinking test
Type: in vivo

CN1C(=O)N(c2ccc(C#Cc3ccccc3)cn2)[C@@H]2CC[C@@H]21 [Example 1, (−)-(1S,5R)-2-methyl-4-(5-(phenylethynyl)pyridin-2-yl)-2,4-diazabicyclo[3.2.0]heptan-3-one]
anxiolytic activity, minimal effective dose: 0.1 mg/kg
